Target: T1, human mAChR M4 (Homo sapiens, UniProt P08173)
T1 construct: expressed in transfected cells; host or cells: CHO-K1 (American Type Culture Collection), stably expressing hM4 and Gqi5
T1 sequence (P08173 1-479): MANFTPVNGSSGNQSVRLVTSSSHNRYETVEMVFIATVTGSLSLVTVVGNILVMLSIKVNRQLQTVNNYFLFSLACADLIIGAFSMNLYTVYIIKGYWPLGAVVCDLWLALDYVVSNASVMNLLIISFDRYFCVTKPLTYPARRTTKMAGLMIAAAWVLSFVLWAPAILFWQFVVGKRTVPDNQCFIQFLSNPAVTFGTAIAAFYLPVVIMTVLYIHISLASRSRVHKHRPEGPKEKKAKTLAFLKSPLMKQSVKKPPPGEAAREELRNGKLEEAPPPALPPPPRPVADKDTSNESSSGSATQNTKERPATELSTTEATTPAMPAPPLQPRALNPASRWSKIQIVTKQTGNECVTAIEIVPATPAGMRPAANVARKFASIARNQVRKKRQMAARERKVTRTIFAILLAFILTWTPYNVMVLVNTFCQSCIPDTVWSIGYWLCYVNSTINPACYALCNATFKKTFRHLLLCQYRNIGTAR
Experiment: mAChR M4 cell-based functional assay: calcium mobilization (Fluo-4, FDSS), potentiation of EC20 acetylcholine response in hM4-Gqi5 CHO-K1 cells
Details: human M4; for Emax at 30 µM: CHO-K1, % ACh maximum at 30 μM; for EC50: potentiation of EC20 acetylcholine response, calcium mobilization
Procedure, shortened: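 Readout is the fluorescence-ratio rise at 1 Hz on FDSS, with PAM activity taken as concentration-dependent enhancement of the EC20 acetylcholine response, fitted four-parameter for EC50/Emax. hM4-Gqi5 CHO-K1 cells carried Fluo-4 AM dye; test compounds (11 points, 1:3) preceded EC20 acetylcholine additions at 144 s and 230 s.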

Row | Compound | Emax at 30 µM [%] | EC50 [nM]
1 | Cc1c(N2CCc3ncc(-c4cc(F)ccc4F)cc3C2)nn2c(=O)ccnc2c1C [Compound 1-345, 7-(3-(2,5-difluorophenyl)-7,8-dihydro-1,6-naphthyridin-6(5H)-yl)-8,9-dimethyl-4H-pyrimido[1,2-b]pyridazin-4-one] | 70 | 200
2 | Cc1c(N2CCc3ncc(-c4cc(F)cc(F)c4F)cc3C2)nn2c(=O)ccnc2c1C [Compound 1-346, 8,9-dimethyl-7-(3-(2,3,5-trifluorophenyl)-7,8-dihydro-1,6-naphthyridin-6(5H)-yl)-4H-pyrimido[1,2-b]pyridazin-4-one] | 67 | 483
3 | Cc1c(N2CCc3ncc(-c4ccc(F)cc4F)cc3C2)nn2c(=O)ccnc2c1C [Compound 1-347, 7-(3-(2,4-difluorophenyl)-7,8-dihydro-1,6-naphthyridin-6(5H)-yl)-8,9-dimethyl-4H-pyrimido[1,2-b]pyridazin-4-one] | 80 | 217
4 | Cc1cccnc1-c1cnc2c(c1)CN(c1nn3c(=O)ccnc3cc1C)CC2 [Compound 1-348, 8-methyl-7-(3-(3-methylpyridin-2-yl)-7,8-dihydro-1,6-naphthyridin-6(5H)-yl)-4H-pyrimido[1,2-b]pyridazin-4-one] | 68 | 2600
5 | Cc1cc2nccc(=O)n2nc1N1CCc2ncc(-c3ccccn3)cc2C1 [Compound 1-349, 8-methyl-7-(3-(pyridin-2-yl)-7,8-dihydro-1,6-naphthyridin-6(5H)-yl)-4H-pyrimido[1,2-b] pyridazin-4-one] | 69 | 1140
6 | Cc1cc(F)cnc1-c1cnc2c(c1)CN(c1nn3c(=O)ccnc3cc1C)CC2 [Compound 1-350, 7-(3-(5-fluoro-3-methylpyridin-2-yl)-7,8-dihydro-1,6-naphthyridin-6(5H)-yl)-8-methyl-4H-pyrimido[1,2-b]pyridazin-4-one] | 72 | 3450
7 | Cc1ccc(-c2cnc3c(c2)CN(c2nn4c(=O)ccnc4cc2C)CC3)nc1 [Compound 1-351, 8-methyl-7-(3-(5-methylpyridin-2-yl)-7,8-dihydro-1,6-naphthyridin-6(5H)-yl)-4H-pyrimido[1,2-b]pyridazin-4-one] | 55 | 426
8 | Cc1cc2nccc(=O)n2nc1N1CCc2ncc(-c3cccnn3)cc2C1 [Compound 1-352, 8-methyl-7-(3-(pyridazin-3-yl)-7,8-dihydro-1,6-naphthyridin-6(5H)-yl)-4H-pyrimido[1,2-b]pyridazin-4-one] | 59 | 3310
9 | Cc1ccc(-c2cnc3c(c2)CN(c2nn4c(=O)ccnc4cc2C)CC3)nn1 [Compound 1-353, 8-methyl-7-(3-(6-methylpyridazin-3-yl)-7,8-dihydro-1,6-naphthyridin-6(5H)-yl)-4H-pyrimido[1,2-b] pyridazin-4-one] | 55 | 1270
10 | Cc1cc2nccc(=O)n2nc1N1CCc2ncc(-c3cc(F)ccn3)cc2C1 [Compound 1-354, 7-(3-(4-fluoropyridin-2-yl)-7,8-dihydro-1,6-naphthyridin-6(5H)-yl)-8-methyl-4H-pyrimido [1,2-b]pyridazin-4-one] | 63 | 2540
11 | Cc1cc(C#N)ncc1-c1cnc2c(c1)CN(c1nn3c(=O)ccnc3cc1C)CC2 [Compound 1-355, 4-methyl-5-(6-(8-methyl-4-oxo-4H-pyrimido[1,2-b]pyridazin-7-yl)-5,6,7,8-tetrahydro-1,6-naphthyridin-3-yl)picolinonitrile] | 78 | 1520
12 | Cc1ccnnc1-c1cnc2c(c1)CN(c1nn3c(=O)ccnc3cc1C)CC2 [Compound 1-356, 8-methyl-7-(3-(4-methylpyridazin-3-yl)-7,8-dihydro-1,6-naphthyridin-6(5H)-yl)-4H-pyrimido[1,2-b]pyridazin-4-one] | 70 | –
13 | COCc1cc(=O)n2nc(N3CCc4ncc(-c5cnc(Cl)cc5C)cc4C3)c(C)cc2n1 [Compound 1-357, 7-(3-(6-chloro-4-methylpyridin-3-yl)-7,8-dihydro-1,6-naphthyridin-6(5H)-yl)-2-(methoxymethyl)-8-methyl-4H-pyrimido[1,2-b]pyridazin-4-one] | 86 | 383
14 | COCc1cc(=O)n2nc(N3CCc4ncc(-c5cccc(F)c5)cc4C3)c(C)cc2n1 [Compound 1-358, 7-(3-(3-fluorophenyl)-7,8-dihydro-1,6-naphthyridin-6(5H)-yl)-2-(methoxymethyl)-8-methyl-4H-pyrimido[1,2-b] pyridazin-4-one] | 83 | 337
15 | COCc1cc(=O)n2nc(N3CCc4ncc(-c5cnccc5C)cc4C3)c(C)cc2n1 [Compound 1-359, 2-(methoxymethyl)-8-methyl-7-(3-(4-methylpyridin-3-yl)-7,8-dihydro-1,6-naphthyridin-6(5H)-yl)-4H-pyrimido[1,2-b] pyridazin-4-one] | 82 | 136
16 | COCc1cc(=O)n2nc(N3CCc4ncc(-c5ccccc5F)cc4C3)c(C)cc2n1 [Compound 1-360, 7-(3-(2-fluorophenyl)-7,8-dihydro-1,6-naphthyridin-6(5H)-yl)-2-(methoxymethyl)-8-methyl-4H-pyrimido[1,2-b] pyridazin-4-one] | 83 | 245
17 | COCc1cc(=O)n2nc(N3CCc4ncc(-c5ccnc(C)c5)cc4C3)c(C)cc2n1 [Compound 1-361, 2-(methoxymethyl)-8-methyl-7-(3-(2-methylpyridin-4-yl)-7,8-dihydro-1,6-naphthyridin-6(5H)-yl)-4H-pyrimido[1,2-b] pyridazin-4-one] | 82 | 351
18 | COCc1cc(=O)n2nc(N3CCc4ncc(-c5ccncc5)cc4C3)c(C)cc2n1 [Compound 1-362, 2-(methoxymethyl)-8-methyl-7-(3-(pyridin-4-yl)-7,8-dihydro-1,6-naphthyridin-6(5H)-yl)-4H-pyrimido[1,2-b] pyridazin-4-one] | 78 | 337
19 | COCc1cc(=O)n2nc(N3CCc4ncc(-c5ccccc5OC(F)(F)F)cc4C3)c(C)cc2n1 [Compound 1-363, 2-(methoxymethyl)-8-methyl-7-(3-(2-(trifluoromethoxy)phenyl)-7,8-dihydro-1,6-naphthyridin-6(5H)-yl)-4H-pyrimido[1,2-b] pyridazin-4-one] | 65 | 3060
20 | COCc1cc(=O)n2nc(N3CCc4ncc(-c5cnn(C6CC6)c5)cc4C3)c(C)cc2n1 [Compound 1-364, 7-(3-(1-cyclopropyl-1H-pyrazol-4-yl)-7,8-dihydro-1,6-naphthyridin-6(5H)-yl)-2-(methoxymethyl)-8-methyl-4H-pyrimido[1,2-b]pyridazin-4-one] | 68 | 298
21 | COCc1cc(=O)n2nc(N3CCc4ncc(-c5cccnc5)cc4C3)c(C)cc2n1 [Compound 1-365, 2-(methoxymethyl)-8-methyl-7-(3-(pyridin-3-yl)-7,8-dihydro-1,6-naphthyridin-6(5H)-yl)-4H-pyrimido[1,2-b] pyridazin-4-one] | 69 | 325
22 | COCc1cc(=O)n2nc(N3CCc4ncc(-c5cnn(C)c5C)cc4C3)c(C)cc2n1 [Compound 1-366, 7-(3-(1,5-dimethyl-1H-pyrazol-4-yl)-7,8-dihydro-1,6-naphthyridin-6(5H)-yl)-2-(methoxymethyl)-8-methyl-4H-pyrimido[1,2-b]pyridazin-4-one] | 72 | 284
23 | COCc1cc(=O)n2nc(N3CCc4ncc(-c5cccs5)cc4C3)c(C)cc2n1 [Compound 1-367, 2-(methoxymethyl)-8-methyl-7-(3-(thiophen-2-yl)-7,8-dihydro-1,6-naphthyridin-6(5H)-yl)-4H-pyrimido[1,2-b] pyridazin-4-one] | 71 | 141
24 | COCc1cc(=O)n2nc(N3CCc4ncc(-c5sccc5OC)cc4C3)c(C)cc2n1 [Compound 1-368, 2-(methoxymethyl)-7-(3-(3-methoxythiophen-2-yl)-7,8-dihydro-1,6-naphthyridin-6(5H)-yl)-8-methyl-4H-pyrimido[1,2-b]pyridazin-4-one] | 95 | 293
25 | COCc1cc(=O)n2nc(N3CCc4ncc(-c5ccc(CO)s5)cc4C3)c(C)cc2n1 [Compound 1-369, 7-(3-(5-(hydroxymethyl)thiophen-2-yl)-7,8-dihydro-1,6-naphthyridin-6(5H)-yl)-2-(methoxymethyl)-8-methyl-4H-pyrimido[1,2-b] pyridazin-4-one] | 99 | 46
26 | COCc1cc(=O)n2nc(N3CCc4ncc(-c5ccsc5)cc4C3)c(C)cc2n1 [Compound 1-370, 2-(methoxymethyl)-8-methyl-7-(3-(thiophen-3-yl)-7,8-dihydro-1,6-naphthyridin-6(5H)-yl)-4H-pyrimido[1,2-b]pyridazin-4-one] | 94 | 153
27 | COCc1cc(=O)n2nc(N3CCc4ncc(-c5ccco5)cc4C3)c(C)cc2n1 [Compound 1-371, 7-(3-(furan-2-yl)-7,8-dihydro-1,6-naphthyridin-6(5H)-yl)-2-(methoxymethyl)-8-methyl-4H-pyrimido[1,2-b]pyridazin-4-one] | 92 | 140

From patent publication US20250101041A1, “POSITIVE ALLOSTERIC MODULATORS OF THE MUSCARINIC ACETYLCHOLINE RECEPTOR M4” (Vanderbilt University, priority 2022, published 2025)
